Kd data for 2 compounds are collected here from paper PMC6770577, “TRPM6 N-Terminal CaM- and S100A1-Binding Domains” (International Journal of Molecular Sciences, 2019).

The target in the test is T1, S100A1 (Homo sapiens, UniProt P23297).
T1 construct: made in house; host or cells: E. coli BL21
T1 sequence (P23297 1-94): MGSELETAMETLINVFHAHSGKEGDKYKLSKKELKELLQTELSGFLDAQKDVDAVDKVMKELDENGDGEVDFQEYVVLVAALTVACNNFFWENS
The experiment in a line: Steady-state fluorescence anisotropy binding assay, FITC-labelled TRPM6np peptides titrated with S100A1. The conditions noted are these: 1 μM N-terminally FITC-labelled peptide titrated with 100 μM S100A1, 50 mM Tris-HCl pH 7.5, 150 mM NaCl, 2 mM CaCl2, room temperature, at least five measurements, read-out: KD, equilibrium dissociation constant of the TRPM6np/S100A1 complex. The method, then: Steady-state fluorescence anisotropy experiments were performed at room temperature on a photon counting spectrometer PC1 (ISS Inc., Champaign, Illinois, USA). TRPM6npWT and its mutants were dissolved in a buffer containing 50 mM Tris-HCl (pH 7.5), 150 mM NaCl, and 2 mM CaCl2 for a final concentration of 1 μM. The samples were titrated in a 2-mm path cuvette with increasing aliquots of 100 μM CaM or S100A1. Fluorescence was excited at 495 nm; the intensity of emission in parallel (III) and perpendicular (I﬩) orientations to the direction of the polarised excitation was obtained at 520 nm by switching the emission polariser. The steady-state fluorescence anisotropy value (r) was calculated from the equation r = (III − I﬩) / (III + 2I﬩). […] Q represents the quantum yield ratio of the bound to the free peptide, calculated from fluorescence lifetimes (τ) according to equation Q = τbound/τfree. […]
Lifetimes were evaluated at room temperature in a drop placed on a coverslip and inserted into an inverted confocal microscope IX83 (Olympus, Tokyo, Japan) equipped with time-correlated single photon counting electronics and cooled GaAsP hybrid detectors (all PicoQuant, Berlin, Germany). […] fluorescence was excited at 485 nm by an LDH-485 picosecond laser (PicoQuant, Berlin, Germany). […]

`CC[C@H](C)[C@H](NC(=O)[C@H](CC(C)C)NC(=S)Nc1ccc2c(c1)C(=O)OC21c2ccc(O)cc2Oc2cc(O)ccc21)C(=O)NCC(=O)N[C@@H](CCCNC(=N)N)C(=O)N[C@@H](C)C(=O)N[C@@H](Cc1ccc(O)cc1)C(=O)N[C@@H](CCCNC(=N)N)C(=O)N[C@@H](CO)C(=O)N[C@@H](CC(N)=O)C(=O)N[C@@H](Cc1ccc(O)cc1)C(=O)N[C@H](C(=O)N[C@@H](C)C(=O)N[C@@H](C)C(=O)N[C@@H](Cc1c[nH]cn1)C(=O)N[C@@H](Cc1ccccc1)C(=O)N[C@@H](CCCNC(=N)N)C(=O)O)[C@@H](C)O` [K532A/R531A]: the Kd was found to be 50.2 µM.
With `CC[C@H](C)[C@H](NC(=O)[C@H](CC(C)C)NC(=S)Nc1ccc2c(c1)C(=O)OC21c2ccc(O)cc2Oc2cc(O)ccc21)C(=O)NCC(=O)N[C@@H](CCCNC(=N)N)C(=O)N[C@@H](C)C(=O)N[C@@H](Cc1ccc(O)cc1)C(=O)N[C@@H](CCCNC(=N)N)C(=O)N[C@@H](CO)C(=O)N[C@@H](CC(N)=O)C(=O)N[C@@H](Cc1ccc(O)cc1)C(=O)N[C@H](C(=O)N[C@@H](CCCNC(=N)N)C(=O)N[C@@H](C)C(=O)N[C@@H](Cc1c[nH]cn1)C(=O)N[C@@H](Cc1ccccc1)C(=O)N[C@@H](CCCNC(=N)N)C(=O)O)[C@@H](C)O` [K532A] the figure was 24.8 µM.
